Here are results for one molecule from US7022484B2, “Methods for treating neuropathological states and neurogenic inflammatory states and methods for identifying compounds useful therein” (Board of Regents, The University of Texas System, priority 2000, dated 2006).

The subject of this test is rat arthritis model. Put plainly: Paw withdrawal latency (PWL) to radiant heat in rat kaolin/carrageenan knee joint inflammation model. The class given is in vivo. As for the experimental part:
All studies followed the guidelines of the Institute Animal Care and Use Committee, in accordance with the guidelines of the National Institutes of Health. All animals were hosted in a room with a constant ambient temperature of 22° C. and 12 hour light/dark cycle with free access to food and water. Eighty-five Sprague-Dawley rats (250–300 grams) total were used in experiments conducted for biochemical, behavioral, and immunocytochemistry studies. […] On Day 2 baseline behavioral testing was followed by infusion of agents for 1.5 hours (pretreatment) prior to induction of knee joint inflammation under brief anesthesia. Behavioral testing was repeated 4 hours after induction of joint inflammation. Anesthetized animals were either transcardially perfused with aldehydes for immunohistochemical studies or fresh, frozen tissues collected for biochemical studies.
A microdialysis fiber was implanted into the spinal dorsal horn of anesthetized rats (sodium pentobarbital, 50 mg/kg) one day prior to the induction of arthritis according to the procedure of Skilling et al. (J. Neurochem., 51:127–132 (1988)), as described in Sluka et al. (Neurosci. Lett., 145:141–144 (1992)). Briefly, a small midline incision was made in the skin over the T12 vertebral level. The vertebrae were cleared of muscle and two 1 millimeter (mm) holes were drilled in the lateral aspect of both sides of the T12 vertebrae to expose the L4 spinal segment. A microdialysis fiber ([…], 45,000 MW cut-off, Hospal, AN69, Hospal Industrie, Meyzieu, France), was passed transversely across the deep dorsal horn and stabilized with dental cement. The microdialysis fiber was then passed through the holes in the vertebrae and transversely through the dorsal horn of the spinal cord. A 2 mm section of the microdialysis fiber lies in the dorsal horn at the level of L3–4 segment. The tubing was coated with epoxy except for a permeable portion passing through the spinal grey matter. The microdialysis fiber was connected to PE20 tubing (Becton Dickinson and Company, San Mateo, Calif.) which was tunneled under the skin to the nape of the neck. Alternatively as a systemic control for drug administration, the microdialysis fiber was implanted only in the subcutaneous tissue over the back muscle and tunneled to the neck. Artificial cerebrospinal fluid (aCSF) was made as described by Sorkin et al. (J. Neurosci. Methods, 23, 131–138 (1988)) and was infused (5 microliters/minute) for 1.5 hours and then the tube was heat-sealed for use on the following day.
Dose response curves were generated for Genistein with animals receiving Genistein spinally at concentration of 0.2 mM (n=3), 0.5 mM (n=3), 1 mM (n=9), and 2 mM (n=3). Animals received Lavendustin A or B spinally at concentrations of 0.1 mM (n=3), 0.5 mM (n=3), and 1 mM (n=5) as a positive and negative control for Genistein. […] Daidzein was tested at a dose of 1 mM (n=3). […] Eight additional animals received the vehicle, 50% DMSO in aCSF, as a control.
An acute inflammatory response restricted to the knee joint can be induced by the injection of 3% kaolin and 3% carrageenan (in sterile saline; 0.1 ml; pH 7.4) into the joint cavity while the animal is briefly anesthetized with sodium methohexital (Brevital, 60 mg/kg, i.p.). Kaolin and carrageenan were obtained from Fisher Scientific, St. Louis, Mo. The knee joint is flexed manually until the rat awakes (approximately 5–10 minutes). In this arthritis model in the awake rat, localized joint swelling, as well as limping and guarding of the limb, are well developed at 4 hours (Sluka et al., Pain, 59, 95–100 (1994)) when behavioral testing begins.
Fifty-five rats were used for behavioral studies. Four hours after induction of the arthritis, the joint is swollen and increased withdrawal responses to radiant heat and spontaneous guarding of the limb were noted. The increased responsiveness to noxious stimuli indicates the presence of secondary hyperalgesia. […]

SMILES strings stand for the structures. “Also recorded” adds a separate entry of the source.

Take `O=c1c(-c2ccc(O)cc2)coc2cc(O)cc(O)c12` [Genistein, 5,7-Dihydroxy-3-(4-hydroxyphenyl)-4H-1-benzopyran-4-one; 4′,5,7-trihydroxy-isoflavone]: the “effect on baseline PWL” value (after 1.5 hours infusion, before kaolin/carrageenan) is on record as “did not affect baseline PWL”. For the same molecule, the “most effective dose in pre-treatment animals” value (concentration inside the microdialysis fiber, spinal administration) is on record as 1 mM. Also, the “PWL decrease induced by knee joint inflammation” value (spinal microdialysis pre-treatment 1.5 hours, PWL to radiant heat 4 hours after kaolin/carrageenan) was “significantly (p<0.05 versus 4 hours vehicle group) attenuated the PWL decreases; also recorded: significantly attenuates the inflammation-induced decrease in PWL”. The “development of secondary hyperalgesia” value (spinal microdialysis pre-treatment, 4 hours after induction of arthritis) is reported as “secondary hyperalgesia did not develop”.
